Laboratory results reported in patent US20250338842A1, “NOVEL MIXTURES FOR CROP PROTECTION” (Adama Agan LTD., priority 2023, published 2025).

Tests used:
Type in all cases: in vivo
[1] = test system: AMAPA (Amaranthus palmeri); experiment: Pot trial Dimethenamid-P+S-Metolachlor+Mesotrione, post-emergence
Text: (§1) A synergistic effect exists whenever the action of an active ingredient combination is greater than the sum of the actions of the individual components. In the field of agriculture, it is often understood that the term “synergy” is as defined by Colby S. R. in an article entitled “Calculation of the synergistic and antagonistic responses of herbicide combinations” published in the journal Weeds, 1967, 15, p. 20-22. The action expected for a given combination of two active components can be calculated according to Colby as follows: […]
(§2) in which E represents the expected effect, e.g. percentage of pest control, for the combination of the active ingredients at defined doses (for example equal to x and y respectively), A is the effect, e.g. percentage of pest control, observed for the first compound or mixture of compounds at a defined dose (equal to x), B is the effect, e.g. percentage of pest control, observed for the second compound or group of compounds at a defined dose (equal to y).
(§3) Here, efficacy or percent inhibition is determined in %. 0% means efficacy that corresponds to the Control, i.e., as if no treatment had been applied. A percent inhibition of 100% means that complete control is observed. When the percent control observed for the combination (E0) is greater than E, there is a synergistic effect. […]

[2] = test system: ECHCG (Echinochloa crus-galli); experiment: Pot trial Flufenacet+Dimethenamid-p+Thiencarbazone, second trial, post-emergence; settings: post-emergence (2-3 leaves), g a.i./ha: Flufenacet 12.2 (12.5 in mix), TCM 3, DMTP 50
Text: as §1, §2, §3

[3] = test system: ECHCG (Echinochloa crus-galli); experiment: Pot trial Flufenacet+Dimethenamid-p+Mesotrione, post-emergence; settings: post-emergence (2-3 leaves), g a.i./ha: Flufenacet 75, MST 60, DMTP 302
Text: as §1, §2, §3

[4] = test system: AMARE (Amaranthus retroflexus); experiment: as above; settings: post-emergence (2-3 leaves), g a.i./ha: Flufenacet 75, MST 60, DMTP 302
Text: as §1, §2, §3

[5] = test system: AMARE (Amaranthus retroflexus); experiment: Pot trial Flufenacet+Dimethenamid-p+Thiencarbazone, third trial, post-emergence; settings: post-emergence (2-3 leaves), g a.i./ha: Flufenacet 75, TCM 18, DMTP 302
Text: as §1, §2, §3

[6] = test system: CHEAL (Chenopodium album); experiment: as above; settings: post-emergence (2-3 leaves), g a.i./ha: Flufenacet 75, TCM 18, DMTP 302
Text: as §1, §2, §3

[7] = test system: SETVE (Setaria verticillate); experiment: Pot trial Flufenacet+Dimethenamid-p+Thiencarbazone, first trial, pre-emergence; settings: g a.i./ha: Flufenacet 12.2 (12.5 in mix), TCM 3, DMTP 50
Text: as §1, §2, §3

[8] = test system: ECHCG (Echinochloa crus-galli); experiment: as above; settings: g a.i./ha: Flufenacet 12.2 (12.5 in mix), TCM 3, DMTP 50
Text: as §1, §2, §3

[9] = test system: AMAPA (Amaranthus palmeri); experiment: Pot trial Dimethenamid-P+Pethoxamid+Mesotrione, third trial, pre-emergence; settings: g a.i./ha: Petoxamid 360, MST 40, DMTP 200
Text: as §1, §2, §3

[10] = test system: AMAPA (Amaranthus palmeri); experiment: Pot trial Dimethenamid-P+Pethoxamid+Mesotrione, first and second trial, post-emergence
Text: as §1, §2, §3

SETVI (Setaria viridis) [11] = experiment: Pot trial Dimethenamid-P+Tembotrione+Pethoxamid (Example 7), post-emergence
Text: as §1, §2, §3

SETVI (Setaria viridis) [12] = experiment: Pot trial Dimethenamid-P+Thiencarbazone+Pethoxamid, post-emergence
Text: as §1, §2
(§4) Here, efficacy or percent inhibition is determined in %. 0% means efficacy that corresponds to the Control, i.e., as if no treatment had been applied. A percent inhibition of 100% means that complete control is observed. When the percent control observed for the combination (E0) is greater than E, there is a synergistic effect. When the percent control observed for the combination (E0) is equal to E, there is an additive effect and wherein the percent control observed for the combination (E0) is lower than E, there is an antagonistic effect.
(§5) First trial: Tank mixes were prepared by combining the formulation with water in order to achieve the desired concentration of each active ingredient, as outlined in Table 19. For this study, individual pots were utilized for sowing the weeds, with each pot containing one weed species, in this case SOLNI (Solanum nigrum) or SETVI (Setaria viridis). Treatments were then applied to each pot at the post-emergence stage of the weeds, ensuring consistent application timing across all treatments. Subsequently, a comprehensive assessment was conducted seven days after application (7DAA) to evaluate the efficacy of each treatment on SOLNI or SETVI.
as §5, with “Second” for “First”, “21.” for “19.”, “Subsequently, a comprehensive assessment was conducted seven days after application (7DAA) to evaluate the efficacy of each treatment on SOLNI or SETVI.” left out

SOLNI (Solanum nigrum) [13] = experiment: as above
Text: as §1, §2, §4, §5
as §5, with “Second” for “First”, “21.” for “19.”, “Subsequently, a comprehensive assessment was conducted seven days after application (7DAA) to evaluate the efficacy of each treatment on SOLNI or SETVI.” left out

SOLNI (Solanum nigrum) [14] = experiment: Pot trial Dimethenamid-P+Tembotrione+Pethoxamid (Example 6), post-emergence
Text: as §1, §2, §3

[15] = second trial, g a.i./ha: PTX 720, TMB 63, DMTP 604.8
[16] = first trial, g a.i./ha: PTX 360, TCM/DMTP 159 (one cell)
[17] = second trial, g a.i./ha: PTX 720, TCM/DMTP 318 (one cell)

Structure (SMILES): CCc1cccc(C)c1N(C(=O)CCl)[C@@H](C)COC [S-metolachlor]
- efficacy 18DAA AMAPA % ([1]; first trial, g a.i./ha: S-MOc 144, MST 20, DMTP 100): 0.00%
- efficacy 18DAA AMAPA % ([1]; second trial, g a.i./ha: S-MOc 288, MST 40, DMTP 200): 0.00%

Structure (SMILES): CC(C)N(C(=O)COc1nnc(C(F)(F)F)s1)c1ccc(F)cc1 [Flufenacet]
- efficacy 8DAA ECHCG % [2]: 0%
- efficacy 8DAA ECHCG % [3]: 0%
- efficacy 8DAA AMARE % [4]: 0%
- efficacy 8DAA AMARE % [5]: 0%
- efficacy 8DAA CHEAL % [6]: 0%
- efficacy 8DAA SETVE % [7]: 0%
- efficacy 8DAA ECHCG % [8]: 0%

Structure (SMILES): CCOCCN(C(=O)CCl)C(=C(C)C)c1ccccc1 [Pethoxamid]
- efficacy 21DAA AMAPA % [9]: 52.50%
- efficacy 21DAA AMAPA % ([10]; first trial, g a.i./ha: Petoxamid 720, MST 60, DMTP 300): 6.25%
- efficacy 21DAA AMAPA % ([10]; second trial, g a.i./ha: Petoxamid 120, MST 20, DMTP 100): 0%
- efficacy 7DAA SETVI % (SETVI (Setaria viridis) [11]; first trial, g a.i./ha: PTX 360, TMB 10.5, DMTP 100.8): 2.50%
- efficacy 7DAA SETVI % (SETVI (Setaria viridis) [11]; [15]): 0.00%
- efficacy 7DAA SETVI % (SETVI (Setaria viridis) [12]; [16]): 2.50%
- efficacy 7DAA SETVI % (SETVI (Setaria viridis) [12]; [17]): 0.00%
- efficacy 7DAA SOLNI % (SOLNI (Solanum nigrum) [13]; [16]): 0.00%
- efficacy 7DAA SOLNI % (SOLNI (Solanum nigrum) [13]; [17]): 1.70%
- efficacy 7DAA SOLNI % (SOLNI (Solanum nigrum) [14]; first trial, g a.i./ha: PTX 120, TMB 10.5, DMTP 100): 0.00%
- efficacy 7DAA SOLNI % (SOLNI (Solanum nigrum) [14]; [15]): 1.70%
